Reference: patent US20060069132A1, “Azolecarboxamide herbicides” (priority 2004, published 2006)

Experiments:
goosegrass = assay: Test C pre-/postemergence herbicide test; format: in vivo, Eleusine indica; conditions: for Plant response rating, Goosegrass / Plant response rating (0 = no effect, 100 = complete control), Goosegrass: preemergence; for Goosegrass plant response rating: Preemergence, scale 0 to 100, 0 no effect, 100 complete control
In short: (§1)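 Greenhouse-grown plants were evaluated visually 12 to 14 days after treatment, with 100 meaning complete control and 0 no effect. Application was preemergence, or postemergence at 2 to 18 cm.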

Surinam grass [1] = assay: Test C pre-/postemergence herbicide test; format: in vivo, Urochloa decumbens; conditions: for Plant response rating, Surinam Grass / Plant response rating (0 = no effect, 100 = complete control), Surinam Grass: preemergence; for Surinam Grass plant response rating: Preemergence, scale 0 to 100, 0 no effect, 100 complete control
In short: as §1

wheat = assay: Test B postemergence herbicide test; format: in vivo, Triticum aestivum; set-up: key to Wheat plant response rating: 0 = no effect, 100 = complete control; conditions: for Plant response rating, Wheat: visual rating after 13 to 15 days
In short: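 Plants grow to 1- to 4-leaf stage (2–18 cm) for postemergence spraying, or to 2-leaf stage for the paddy test. Formulated compound is applied. Greenhouse holding lasts 13–15 days. Response is scored visually relative to controls, 0 no effect to 100 complete control; a dash means no result.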

eastern black nightshade = assay: Test C pre-/postemergence herbicide test; format: in vivo, Solanum ptycanthum; conditions: for Plant response rating, Nightshade / Plant response rating (0 = no effect, 100 = complete control), Nightshade: preemergence; for Nightshade plant response rating: Preemergence, scale 0 to 100, 0 no effect, 100 complete control
In short: as §1

Surinam grass [2] = assay: Test B pre-/postemergence herbicide test; format: in vivo, Urochloa decumbens
In short: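 Flooded paddy rice and barnyardgrass were treated at the 2-leaf stage; upland plantings received compound either on sown seed or on 1- to 4-leaf seedlings. All were kept 13–15 days in a greenhouse and scored visually, 0–100, relative to untreated plants.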

common ragweed = assay: Test C pre-/postemergence herbicide test; format: in vivo, Ambrosia elatior; set-up: key to Plant response rating, Ragweed: 0 = no effect, 100 = complete control; conditions: for Plant response rating, Ragweed / Plant response rating (0 = no effect, 100 = complete control), Ragweed: preemergence; for Ragweed plant response rating: Preemergence, scale 0 to 100, 0 no effect, 100 complete control
In short: as §1

[3] = 500 g ai/ha, scale 0 to 100 (0 no effect, 100 complete control), visual, 12 to 14 days
[4] = 125 g ai/ha, visual rating, scale 0 (no effect) to 100 (complete control), postemergence
[5] = postemergence, 500 g ai/ha, scale 0 to 100, 0 is no effect, 100 is complete control
[6] = 125 g ai/ha, 0 is no effect, 100 is complete control, preemergence
[7] = 500 g ai/ha, visual rating, 0 = no effect, 100 = complete control, preemergence
[8] = 125 g ai/ha, scale 0 (no effect) to 100 (complete control), visual, 12 to 14 days
[9] = 250 g ai/ha, scale 0 to 100 (0 no effect, 100 complete control), visual, 12 to 14 days
[10] = Postemergence, 500 g ai/ha, scale 0 (no effect) to 100 (complete control)
[11] = postemergence, 125 g ai/ha, visual rating, scale 0 (no effect) to 100 (complete control)
[12] = Postemergence, 500 g ai/ha, visual rating after 13 to 15 days, scale 0 (no effect) to 100 (complete control)
[13] = preemergence, 125 g ai/ha, 0 to 100 scale, 0 is no effect, 100 is complete control
[14] = 500 g ai/ha, visual rating 0-100, 0 no effect, 100 complete control, preemergence
[15] = postemergence, 500 g ai/ha, visual rating, scale 0 (no effect) to 100 (complete control)
[16] = Postemergence, 250 g ai/ha, scale 0 (no effect) to 100 (complete control)
[17] = postemergence, 62 g ai/ha, scale 0 to 100

| Compound | Plant response rating, Goosegrass (goosegrass; 62 g ai/ha, scale 0 to 100) | Plant response rating (0 = no effect, 100 = complete control), Goosegrass (goosegrass; 125 g ai/ha) | Plant response rating, Goosegrass (goosegrass; 250 g ai/ha, scale 0-100) | Plant response rating, Goosegrass (goosegrass; [3]) | Plant response rating, Surinam Grass (Surinam grass [1]; 62 g ai/ha, scale 0 to 100) | Plant response rating (0 = no effect, 100 = complete control), Surinam Grass (Surinam grass [1]; 125 g ai/ha) | Plant response rating, Surinam Grass (Surinam grass [1]; 250 g ai/ha, scale 0-100) | Plant response rating, Surinam Grass (Surinam grass [1]; [3]) | Wheat plant response rating (wheat; [4]) | Plant response rating, Nightshade (eastern black nightshade; 62 g ai/ha, scale 0 to 100) | Plant response rating, Ragweed (common ragweed; 62 g ai/ha, scale 0 to 100) | Plant response rating, Goosegrass (goosegrass; [8]) | Goosegrass plant response rating (goosegrass; 500 g ai/ha) | Plant response rating, Surinam Grass (Surinam grass [1]; [8]) | Surinam Grass plant response rating (Surinam grass [1]; 500 g ai/ha) | Plant response rating, Nightshade (eastern black nightshade; [8]) | Nightshade plant response rating (eastern black nightshade; 500 g ai/ha) | Surinam Grass plant response rating (Surinam grass [2]; [11]) | Plant response rating, Ragweed (common ragweed; [8]) | Ragweed plant response rating (common ragweed; 500 g ai/ha) | other results |
| --- | --- | --- | --- | --- | --- | --- | --- | --- | --- | --- | --- | --- | --- | --- | --- | --- | --- | --- | --- | --- | --- |
| CCC1=NN(C(C)(C)C)CC1C(=O)Nc1cc(C(=O)N2CC=CC2)ccc1F (racemic) [Compound 340] | 5 | 60 | 85 | 90 | 0 | 60 | 65 | 85 | 0 | 60 | 0 |  |  |  |  |  |  |  |  |  | Wheat plant response rating (wheat; [5]): 10; Plant response rating (0 = no effect, 100 = complete control), Nightshade (eastern black nightshade; 125 g ai/ha): 90; Plant response rating, Nightshade (eastern black nightshade; 250 g ai/ha, scale 0-100): 100; Plant response rating, Nightshade (eastern black nightshade; [3]): 100; Plant response rating (0 to 100 scale), Surinam Grass (Surinam grass [2]; [6]): 80; Surinam Grass plant response rating (Surinam grass [2]; [4]): 10; Plant response rating, Surinam Grass (Surinam grass [2]; [7]): 100; Surinam Grass plant response rating (Surinam grass [2]; [5]): 20; Plant response rating (0 = no effect, 100 = complete control), Ragweed (common ragweed; 125 g ai/ha): 0; Plant response rating, Ragweed (common ragweed; 250 g ai/ha, scale 0-100): 20; Plant response rating, Ragweed (common ragweed; [3]): 75 |
| CCC1=NN(C(C)(C)C)CC1C(=O)Nc1cc(C(=O)N2CCCC2)ccc1F (racemic) [Compound 341] | 70 | 85 | 85 | 90 | 60 | 95 | 100 | 100 | 10 | 50 | 50 |  |  |  |  |  |  |  |  |  | Wheat plant response rating (wheat; [5]): 20; Plant response rating (0 = no effect, 100 = complete control), Nightshade (eastern black nightshade; 125 g ai/ha): 55; Plant response rating, Nightshade (eastern black nightshade; 250 g ai/ha, scale 0-100): 100; Plant response rating, Nightshade (eastern black nightshade; [3]): 100; Plant response rating (0 to 100 scale), Surinam Grass (Surinam grass [2]; [6]): 100; Surinam Grass plant response rating (Surinam grass [2]; [4]): 10; Plant response rating, Surinam Grass (Surinam grass [2]; [7]): 100; Surinam Grass plant response rating (Surinam grass [2]; [5]): 20; Plant response rating (0 = no effect, 100 = complete control), Ragweed (common ragweed; 125 g ai/ha): 100; Plant response rating, Ragweed (common ragweed; 250 g ai/ha, scale 0-100): 100; Plant response rating, Ragweed (common ragweed; [3]): 100 |
| CCC1=NN(C(C)(C)C)CC1C(=O)Nc1cc(C(=O)N(C)CC)ccc1F (racemic) [Compound 342] | 60 | 65 | 65 | 90 | 40 | 90 | 100 | 100 | 0 | 60 | 55 |  |  |  |  |  |  |  |  |  | Wheat plant response rating (wheat; [5]): 10; Plant response rating (0 = no effect, 100 = complete control), Nightshade (eastern black nightshade; 125 g ai/ha): 80; Plant response rating, Nightshade (eastern black nightshade; 250 g ai/ha, scale 0-100): 80; Plant response rating, Nightshade (eastern black nightshade; [3]): 85; Plant response rating (0 to 100 scale), Surinam Grass (Surinam grass [2]; [6]): 50; Surinam Grass plant response rating (Surinam grass [2]; [4]): 10; Plant response rating, Surinam Grass (Surinam grass [2]; [7]): 100; Surinam Grass plant response rating (Surinam grass [2]; [5]): 20; Plant response rating (0 = no effect, 100 = complete control), Ragweed (common ragweed; 125 g ai/ha): 95; Plant response rating, Ragweed (common ragweed; 250 g ai/ha, scale 0-100): 100; Plant response rating, Ragweed (common ragweed; [3]): 100 |
| CCCn1nc(C(C)(C)C)cc1C(=O)Nc1cccc(C(=O)NCC)c1 [Compound 57] |  |  |  |  |  |  |  |  |  |  |  | 75 | 90 | 15 | 75 | 95 | 100 | 10 | 100 | 100 | Plant response rating (0 = no effect, 100 = complete control), Goosegrass (goosegrass; 62 g ai/ha): 45; Plant response rating, Goosegrass (goosegrass; [9]): 90; Plant response rating (0 = no effect, 100 = complete control), Surinam Grass (Surinam grass [1]; 62 g ai/ha): 0; Plant response rating, Surinam Grass (Surinam grass [1]; [9]): 35; Plant response rating, Wheat (wheat; [10]): 10; Wheat plant response rating (wheat; [11]): 10; Plant response rating (0 = no effect, 100 = complete control), Nightshade (eastern black nightshade; 62 g ai/ha): 85; Plant response rating, Nightshade (eastern black nightshade; [9]): 100; Plant response rating, Surinam Grass (Surinam grass [2]; [12]): 20; Surinam Grass plant response rating (Surinam grass [2]; Preemergence, 500 g ai/ha, scale 0 to 100): 40; Plant response rating, Surinam Grass (Surinam grass [2]; [13]): 20; Plant response rating (0 = no effect, 100 = complete control), Ragweed (common ragweed; 62 g ai/ha): 65; Plant response rating, Ragweed (common ragweed; [9]): 100 |
| CCC(=NO)c1cccc(NC(=O)c2cc(C(C)(C)C)nn2C)c1 [Compound 118] |  |  |  |  |  |  |  |  |  |  |  | 80 |  | 20 |  | 100 |  | 40 | 10 |  | Plant response rating, Goosegrass (goosegrass; 31 g ai/ha, scale 0 to 100): 20; Plant response rating (0 = no effect, 100 = complete control), Goosegrass (goosegrass; 62 g ai/ha): 20; Plant response rating, Surinam Grass (Surinam grass [1]; 31 g ai/ha, scale 0 to 100): 20; Plant response rating, Wheat (wheat; [10]): 10; Wheat plant response rating (wheat; [11]): 10; Plant response rating, Nightshade (eastern black nightshade; 31 g ai/ha, scale 0 to 100): 60; Plant response rating (0 = no effect, 100 = complete control), Nightshade (eastern black nightshade; 62 g ai/ha): 100; Plant response rating, Surinam Grass (Surinam grass [2]; [14]): 50; Plant response rating, Surinam Grass (Surinam grass [2]; [12]): 40; Plant response rating, Surinam Grass (Surinam grass [2]; [13]): 10; Plant response rating, Ragweed (common ragweed; 31 g ai/ha, scale 0 to 100): 0; Plant response rating (0 = no effect, 100 = complete control), Ragweed (common ragweed; 62 g ai/ha): 0 |
| CCn1nc(C(C)(C)C)cc1C(=O)Nc1cc(C#N)ccc1F [Compound 140] |  |  |  |  |  |  |  |  |  |  |  | 0 | 75 | 0 | 70 | 0 | 95 | 0 | 0 | 95 | Plant response rating (0 = no effect, 100 = complete control), Goosegrass (goosegrass; 62 g ai/ha): 0; Plant response rating (0 = no effect, 100 = complete control), Surinam Grass (Surinam grass [1]; 62 g ai/ha): 0; Wheat plant response rating (wheat; [15]): 0; Plant response rating (0 = no effect, 100 = complete control), Nightshade (eastern black nightshade; 62 g ai/ha): 0; Plant response rating, Surinam Grass (Surinam grass [2]; [14]): 60; Surinam Grass plant response rating (Surinam grass [2]; [15]): 0; Plant response rating, Surinam Grass (Surinam grass [2]; [13]): 0; Plant response rating (0 = no effect, 100 = complete control), Ragweed (common ragweed; 62 g ai/ha): 0 |
| CCNC(=O)c1ccnc(NC(=O)c2cc(C(C)(C)C)nn2CC)c1 [Compound 152] | 80 |  |  |  | 40 |  |  |  |  | 80 | 85 | 100 | 100 | 60 | 100 | 90 | 100 |  | 85 | 100 | Wheat plant response rating (wheat; 250 g ai/ha, scale 0 to 100, 0 no effect, 100 complete control, preemergence): 100; Wheat plant response rating (wheat; [16]): 10; Wheat plant response rating (wheat; [17]): 10; Surinam Grass plant response rating (Surinam grass [2]; [16]): 40; Surinam Grass plant response rating (Surinam grass [2]; [17]): 30 |
| CCc1nn(C(C)(C)C)cc1C(=O)Nc1cccc(C(C)=NO)c1 [Compound 188] | 15 |  |  |  | 20 |  |  |  |  | 80 | 0 | 70 | 90 | 30 | 80 | 95 | 100 | 10 | 65 | 100 | Wheat plant response rating (wheat; [11]): 0; Wheat plant response rating (wheat; [15]): 10; Surinam Grass plant response rating (0 to 100 scale) (Surinam grass [2]; 125 g ai/ha, 0 = no effect, 100 = complete control, preemergence): 30; Plant response rating, Surinam Grass (Surinam grass [2]; [14]): 70; Surinam Grass plant response rating (Surinam grass [2]; [15]): 10 |
